Laboratory results taken from patent publication US6489356B2, “Method for treating pain in humans” (priority 2000, dated 2002).
Entries after “also recorded” stand apart in the source; their conditions may differ. Like-named read-outs stand apart in the source and are kept apart here.

How the values were obtained:
A1 adenosine receptor [1] = biological target: T1, A1 adenosine receptor (Cavia porcellus, UniProt P47745); conditions: isolated ileum; cited from earlier work
T1 construct: functional studies conducted in the isolated guinea pig left atrium and isolated ileum; from tissue; host or cells: isolated guinea pig ileum
T1 sequence (P47745 1-326): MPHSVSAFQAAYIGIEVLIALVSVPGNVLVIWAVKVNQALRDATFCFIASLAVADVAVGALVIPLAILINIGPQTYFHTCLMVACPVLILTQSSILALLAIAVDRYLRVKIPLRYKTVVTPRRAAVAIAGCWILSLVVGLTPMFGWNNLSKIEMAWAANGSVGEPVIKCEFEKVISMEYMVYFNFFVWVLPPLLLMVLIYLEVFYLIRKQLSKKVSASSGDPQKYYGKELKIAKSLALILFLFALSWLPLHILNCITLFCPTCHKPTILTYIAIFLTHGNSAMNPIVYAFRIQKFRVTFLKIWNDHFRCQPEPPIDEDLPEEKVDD

A1 adenosine receptor [2] = biological target: T2, A1 adenosine receptor (Rattus norvegicus, UniProt P25099); conditions: rat brain, cited from earlier work
T2 construct: from tissue; host or cells: rat brain
T2 sequence (P25099 1-326): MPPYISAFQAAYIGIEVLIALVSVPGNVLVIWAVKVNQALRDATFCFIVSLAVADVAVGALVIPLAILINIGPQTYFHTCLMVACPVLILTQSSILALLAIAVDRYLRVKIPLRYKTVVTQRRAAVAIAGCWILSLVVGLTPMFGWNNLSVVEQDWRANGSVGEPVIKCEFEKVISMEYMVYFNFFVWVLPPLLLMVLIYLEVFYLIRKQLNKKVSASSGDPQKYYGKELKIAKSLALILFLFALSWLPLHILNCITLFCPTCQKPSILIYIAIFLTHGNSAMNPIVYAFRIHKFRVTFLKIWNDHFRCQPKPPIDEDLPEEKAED

A1 adenosine receptor [3] = biological target: T1, A1 adenosine receptor; conditions: isolated guinea pig left atrium; cited from earlier work
[4] = tested on: mechanical hypersensitivity after spinal nerve ligation in the rat; assay: spinal nerve ligation model of neuropathic pain, von Frey withdrawal threshold; type: in vivo; conditions: for dose returning sensitivity (withdrawal threshold) to normal: rat
From the text: Following Animal Care and Use Committee approval, mechanical hypersensitivity was generated in male Sprague-Dawley rats as described in the following paper. (Kim,S. H. and Chung, J. M., An experimental model for peripheral neuropathy produced by segmental spinal nerve ligation in the rat, Pain, 50 (1992) 355-363. Briefly, under general anesthesia with inhalational halothane, the left L5 and L6 spinal nerves were identified through a small laminotomy and tightly ligated. Approximately one week later, an intrathecal catheter was placed under general anesthesia by insertion under direct vision of a polyethylene catheter through a small slit in the dura at the cisterna magnum and advanced 8.5 cm such that the catheter tip resided in the lower lumbar intrathecal space. Animals were studied approximately one week later.
Ligation of the lumbar spinal nerves results in a primarily unilateral increase in the sensitivity to light touch on the operated side. Sensitivity was assessed via application of calibrated von Frey filaments. The withdrawal threshold was determined using an up down method as described in Chaplan, S. R., Bach, F. W., Pogrel, J. W., Chung, J. M., and Yaksh, T. L., Quantitative assessment of tactile allodynia in the rat paw, J. Neurosci. Methods, 53 (1994) 55-63.
Von Frey filaments are scientific apparatus designed to apply a pre-determined pressure to a surface. These filaments are flexible bristles with a flat tip. The applied pressure is determined by the diameter of the filament.
In these studies, the animals are placed on top of a wired cage. The goal of these studies is to determine the pressure at which the animal perceives the pressure applied as painful and lifts its foot. The scientist determines the discomfort pressure threshold by pressing the tip of von Frey filaments, one filament at a time, to the bottom of the foot through the wired cage floor. When a slight pressure is applied to the underside of the foot, the animal feels the sensation but it will not lift its foot because this sensation is not painful, or uncomfortable.
In a normal animal, the threshold for discomfort is approximately 35 g pressure. In an animal whose foot is rendered more sensitive to pressure, the withdrawal threshold is less than 4 g. That is, a pressure that is not perceived as pain in the unaltered, control foot will be perceived as a painful stimulus in the surgically altered foot.
Mechanical withdrawal threshold was determined before and at intervals after intrathecal injection of Compound T62, 1-5 μg. […] In the study, the investigator was blinded to the dose administered. Compound T62 was dissolved in cyclodextrin, which had no effect on withdrawal threshold when administered alone.
Animals received 6 injections, each separated by a minimum of 4 days to prevent development of tolerance. The withdrawal threshold to mechanical stimulation with von Frey filaments was determined before and at intervals of […] following intrathecal injection, then again at 20 hours following injection. A dose response was determined using the time of peak effect (2 hr for each compound) and the ED50 determined by linear regression.
The ED50 for the mixture (total of each component combined) was determined by linear regression, an isobologram constructed, and the observed ED50 was compared to the theoretical ED50 by a t-test as previously described in Tallarida, R. J., Statistical analysis of drug combinations for synergism, Pain, 49 (1992) 93-97. In order to determine the site of action of Compound T62, two experiments were performed. […]
Compound T62 was dissolved in 45% […] (RBI, Natick, Mass. ). Drugs were administered intrathecal in a 5 μl volume followed by 10 μl of saline to flush the catheter.
Data are presented as median±25th and 75th percentile (for raw withdrawal thresholds) or by mean±SE. Linear regression was used to calculate the ED50 for each drug alone and for the fixed ratio combination. […]

[5] = tested on: carrageenan-induced hyperalgesia in rats; assay: carrageenan paw model of inflammatory pain, Hargreaves thermal withdrawal; type: in vivo, rat
Method: Compound T62 was tested for its efficacy in treating inflammatory pain by use of the carrageenan paw model. Carrageenan is a water-extractable polysaccharide obtained from seaweeds. […] Carrageenan-induced hyperalgesia is believed to occur as a consequence of sensitization of primary afferent nociceptors and neuron plasticity intrinsic to the spinal cord.
Animals were prepared with chronic lumbar intrathecal catheters. Baseline measurement of hindpaw withdrawal latency to thermal stimulation were obtained on a Hargreaves device. Animals received a single intrathecal (IT) injection of Compound T-62 ranging from 0.5 to 40 μg. Withdrawal thresholds were measured on a Hargreaves device every 30 minutes for three hours.

[6] = biological target: T3, A1 receptor in rat forebrain membranes (Rattus norvegicus, UniProt P25099); conditions: compound 30 in reference (5), Bruns et al.; read-out: ED50 as an enhancer; cited from earlier work
T3 construct: from tissue; host or cells: rat forebrain membranes
T3 sequence (P25099 1-326): T2 sequence (P25099 1-326)

mouse = type: in vivo; conditions: 1024 mg/kg i.p., listed as Compound T-62
Method: As indicated above, Compound T62 is an effective treatment for neuropathic pain at a dose of 15 mg/kg by intraperitoneal (i.p.) injection. In addition, the safety of T62 was evaluated at 64, 128, 256, 512 and 1024 mg/kg (Table 1).

[7] = biological target: T4, human recombinant A1 adenosine receptors (Homo sapiens, UniProt P30542); assay: cyclic AMP production in CHO cells expressing the A1 adenosine receptor; type: cell-based
T4 construct: expressed in transfected cells; host or cells: CHO cells (CHO: huA1)
T4 sequence (P30542 1-326): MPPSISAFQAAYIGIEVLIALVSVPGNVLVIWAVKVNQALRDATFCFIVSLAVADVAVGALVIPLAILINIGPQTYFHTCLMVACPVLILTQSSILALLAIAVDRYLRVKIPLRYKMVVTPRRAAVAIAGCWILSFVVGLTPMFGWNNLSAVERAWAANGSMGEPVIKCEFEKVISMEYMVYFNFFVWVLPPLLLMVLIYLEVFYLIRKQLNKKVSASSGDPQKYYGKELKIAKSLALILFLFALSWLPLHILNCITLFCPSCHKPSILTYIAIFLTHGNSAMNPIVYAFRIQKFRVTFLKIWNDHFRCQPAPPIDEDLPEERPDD
Method: Cells were removed from liquid nitrogen storage when needed, and grown in Ham's F-12 culture medium with 10% fetal bovine serum and 0.5 mg/ml of antibiotic G-418. Aliquots of cells were placed into 12-well cultured plates with culture medium, serum, and antibiotic for 48-72 hours, by which time the cells had grown to a confluent monolayer.
To begin an experiment, growth medium was removed from the culture plates and cells were washed once with Hanks' buffered saline solution. […] After 6 min of incubation at 36° C. in the presence of drugs, the incubation solution was removed and hydrochloric (final concentration, 50 mM) was added to terminate drug action.
The content of cAMP in acidified extracts of cells was determined by radioimmunoassay as previously described (12). The compounds listed in reference 7 (U.S. Pat. No. 5,939,432) relating to allosteric enhancers, were tested using this method.
Because the magnitude of the effects of allosteric enhancers on cells changed with time and batch of cells, the actions of each test compound to enhance the effect of CPA (and thus reduce cAMP content of CHO cells) were normalized to the response of cells to 10 μM PD 81,723. […] Enhancement by Compound T62 began at 10 nM. There was no antagonism of this effect even at 10 μM of Compound T62.

[8] = tested on: phenylbenzoquinone-induced writhing in mice; assay: phenylbenzoquinone (PBQ) writhing test; type: in vivo, mouse
Method: Testing for use of Compound T62 in treatment of persistent chemical pain was performed following the phenylbenzoquinone (PBQ) writhing tests. This method detects general analgesic activity. Mice were injected with phenylbenzoquinone (PBQ) (1.25 mg/kg i.p.). […] The number of writhes was counted for 10 minutes beginning 5 minutes after injection of PBQ. 8 mice were studied for each treatment group and the test was performed blind.

For CCOC(=O)N1CCc2c(sc(N)c2C(=O)c2ccccc2)C1 [PD 78,416], the “enhancement of the effect of the agonist CPA” value (A1 adenosine receptor [1]) is listed as “failed to enhance”, the “enhancement of [3H]CHA binding” value (A1 adenosine receptor [2]; competition studies) is listed as “not observed” and the “effect on dissociation of [3H]CHA binding” value (A1 adenosine receptor [2]) is listed as “retards the dissociation”. The “enhancement of the effect of the agonist CPA” value (A1 adenosine receptor [3]) was “enhanced the effect”.

In the case of Nc1ncnc2c1ncn2[C@@H]1O[C@H](CO)[C@@H](O)[C@H]1O [adenosine, reference compound], the “time of peak effect” value ([4]; intrathecal injection) is reported as 2 h and the “dose returning sensitivity (withdrawal threshold) to normal” value ([4]; intrathecal injection) is reported as 30 µg.

In the case of Nc1sc2c(c1C(=O)c1ccc(Cl)cc1)CCCC2 [Compound T62, (2-Amino-4,5,6,7-tetrahydrobenzo[b]thiophen-3-yl)(4-chlorophenyl)methanone], the “dose sufficient to completely reverse hypersensitivity of the inflamed foot to pre-carrageenan levels” value ([5]; intrathecal, rats with 2 mg intraplantar carrageenan, n=4) is given as 1 µg, the “effect on withdrawal thresholds” value ([5]; normal rats, intrathecal 0.5 to 40 μg) is given as “no significant effect” and the EC50 [6] is given as 15.3 µM. The Irwin test observations (mouse) was “tremor and tip-toe gait”, the “duration of effect on withdrawal threshold” value ([4]; IP injection, 15 mg/kg) was “at least 4 hours” and the effect on hypersensitivity ([4]; intraperitoneal injection, 15 mg/kg) was “effective to reduce hypersensitivity”. For the same compound, the “dose required for efficacy” value ([4]; intraperitoneal, rats, neuropathic pain) was 15 mg/kg, the “effect of intraperitoneal Compound T62 after A1 antagonist” value ([4]; intrathecal DPCPX (5 μg)) was “blocked” and the motor effect ([4]; intrathecal doses larger than 1-5 μg) was “obvious motor blockade”. The “duration of effect on withdrawal threshold” value ([4]; intrathecal injection) was “over 4 hours”, the “time of peak effect” value ([4]; intrathecal injection) was 2 h and the “dose returning sensitivity (withdrawal threshold) to normal” value ([4]; intrathecal injection) was 5 µg. The “enhancer potency compared to PD 81,723” value ([7]; CHO:huA1 cells cAMP) was “more potent enhancer than PD 81,723”, the “concentration at which enhancement of the CPA induced inhibition of cyclic AMP production began” value ([7]; CHO:huA1 cells, forskolin 1 μM, CPA, normalized to 10 μM PD 81,723) was 10 nM and the “antagonism of the A1 receptor” value ([7]; at 10 μM Compound T62) was “does not antagonize; also recorded: no antagonism”. The “NUMBER OF WRITHES (5 to 1 5 min after phenylbenzoquinone) mean ± s.e.m.” value (shortened to “NUMBER OF WRITHES”) ([8]; 128 mg/kg i.p. −30 minutes) was 13.9 ± 3.4, the “percent change from control” value ([8]; 128 mg/kg i.p. −30 minutes) was −18% and the “NUMBER OF WRITHES” value ([8]; 128 mg/kg i.p. −1 hour) was 10.9 ± 2.6. The “percent change from control” value ([8]; 128 mg/kg i.p. −1 hour) was −58%, the “NUMBER OF WRITHES” value ([8]; 128 mg/kg i.p. −2 hours) was 17.3 ± 2.0 and the “percent change from control” value ([8]; 128 mg/kg i.p. −2 hours) was −38%. For the same compound, the “NUMBER OF WRITHES” value ([8]; 128 mg/kg i.p. −4 hours) was 13.1 ± 3.5, the “percent change from control” value ([8]; 128 mg/kg i.p. −4 hours) was −36% and the “NUMBER OF WRITHES” value ([8]; 128 mg/kg i.p. −8 hours) was 15.3 ± 4.1. For the same compound, the “percent change from control” value ([8]; 128 mg/kg i.p. −8 hours) was “+11%”, the “NUMBER OF WRITHES” value ([8]; 512 mg/kg i.p. −30 minutes) was 5.9 ± 2.2 and the “percent change from control” value ([8]; 512 mg/kg i.p. −30 minutes) was −65%. For the same compound, the “NUMBER OF WRITHES” value ([8]; 512 mg/kg i.p. −1 hour) was 6.4 ± 1.0, the “percent change from control” value ([8]; 512 mg/kg i.p. −1 hour) was −75% and the “NUMBER OF WRITHES” value ([8]; 512 mg/kg i.p. −2 hours) was 3.5 ± 1.8. For the same compound, the “percent change from control” value ([8]; 512 mg/kg i.p. −2 hours) was −87%, the “NUMBER OF WRITHES” value ([8]; 512 mg/kg i.p. −4 hours) was 4.8 ± 1.5 and the “percent change from control” value ([8]; 512 mg/kg i.p. −4 hours) was −77%. The “NUMBER OF WRITHES” value ([8]; 512 mg/kg i.p. −8 hours) was 6.0 ± 1.9, the “percent change from control” value ([8]; 512 mg/kg i.p. −8 hours) was −56% and the “dose required for efficacy” value ([8]; intraperitoneal, mice, chemically induced pain) was 128 mg/kg.
